Test results reported in paper PMC4850295, “Using a Genetically Encoded Sensor to Identify Inhibitors of Toxoplasma gondii Ca^2+ Signaling” (The Journal of Biological Chemistry, 2016).
Several values for one entry are separate records, joined by “and”; a condition that tells them apart may be missing. Equal values may be shown once.

Each compound was assayed on T1, GCaMP5-expressing T. gondii. Details: 100 uM zaprinast stimulation, 10 min pretreatment, mean of two replicates, 0.23 h, 10 µM.
T1 construct: whole extracellular parasites expressing GCaMP5 Ca2+ sensor
Design: species or system GCaMP5-expressing Toxoplasma gondii, extracellular; GCaMP5 fluorescence (cytosolic Ca2+) after 100 uM zaprinast in compound-pretreated extracellular parasites, background-subtracted, relative to zaprinast alone
Experimental: GCaMP5-expressing parasites were suspended in Ringer's solution at 4 × 10^7 parasites/ml, and 50 μl of parasites were applied to each well of a 96-well plate (Costar, catalog no. 3631). […] Parasites were then treated with 100 μM zaprinast or 0.1% DMSO as a vehicle control and incubated at 37 °C with 5% CO2 for an additional 4 min before measuring fluorescence with excitation and emission wavelengths of 485 and 525 nm, respectively, on a SpectraMax M3 (Molecular Devices). Basal fluorescence, measured from untreated parasites, was subtracted from all values, and results were expressed as -fold change from parasites treated only with zaprinast. Z′ factors were determined from (i) parasites treated with zaprinast versus untreated parasites and (ii) parasites treated with a final concentration of 1 μM Cpd2 or a vehicle control followed by zaprinast, using the formula, Z′ = 1 − 3(σp + σn)/(|μp − μn|), where σp and σn indicate S.D. values of positive and negative controls, and μp and μn indicate the means of positive and negative controls, respectively. […] We predicted that the zaprinast response measured in GCaMP5-expressing parasites could form the basis for a phenotypic screen. Such a screen would benefit from the known importance of Ca^2+ signaling in parasite biology along with the reported success rate of cell-based phenotypic assays. We designed a screen wherein extracellular GCaMP5-expressing parasites were pretreated with compounds for 10 min before stimulation with zaprinast, and parasite fluorescence was measured 4 min later. We expected that compounds that interfered with the zaprinast response would reduce fluorescence. We calculated a Z′-factor for this screen to determine its dynamic range and suitability to high throughput screening. To do so, we compared zaprinast-treated parasites to untreated parasites or those pretreated with the PKG inhibitor Compound 2 (Cpd2) ([55]). […] We obtained the compound libraries published kinase inhibitor sets PKIS1 ([57]) and PKIS2 (unpublished), from GlaxoSmithKline and applied our phenotypic screen to the 823 ATP mimetics represented in these collections (Fig. 2B and supplemental Table S1). The compounds were screened at a single 10 μM dose with two biological replicates.

Structure (SMILES) | fold change in fluorescence relative to zaprinast alone
Fc1ccc(-c2nc3n(c2-c2ccncc2)CCS3)cc1 [GI98581X] | 0.7657 and 1.237
CCn1c(-c2nonc2N)nc2c(-c3ccccc3)ncc(OCCCN)c21 [GSK260205A] | 0.1513

Same assay, conditions: 100 uM zaprinast stimulation; 10 min pretreatment; mean of two replicates; 0.23 h

Structure (SMILES) | fold change in fluorescence relative to zaprinast alone
Nc1ncnc2c1ncn2-c1ccc(Cl)cc1 [AH2635] | 1.022
c1ccc(-c2cnc3nccnn23)cc1 [AH20685XX] | 1.296
COc1cc2ncnc(Nc3cccc(Br)c3)c2cc1OC [GI230329A] | 1.268
COc1ccc2ncnc(Nc3ccc(OCc4ccccc4)cc3)c2c1 [GI261520A] | 0.7394
COc1cc2ncnc(Nc3ccc(OCc4ccccc4Br)c(Cl)c3)c2cc1OC [GI261590A] | 1.09
COc1cc2nccc(Nc3ccc(Oc4ccccc4)cc3)c2cc1OC [GI261656A] | 0.5416
O=C1Nc2ccccc2C1=C1CCc2cc(O)ccc21 [GR105659X] | 1.22
c1ccc(Cc2nc3ccc(Nc4ncnc5ccccc45)cc3[nH]2)cc1 [GR269666A] | 1.257
Clc1cc(Cl)cc(Nc2ccnc(Nc3cc(Cl)cc(Cl)c3)n2)c1 [GSK175726A] | 0.5192
CC1=C(C(=O)Nc2ccc3[nH]ncc3c2)C(c2ccc(F)cc2)NC(=O)N1 (stereo not shown) [GSK180736A] | 0.8811
CN(C)C(=O)O[C@H]1CN[C@H](C#Cc2cc3ncnc(Nc4ccc(OCc5cccc(F)c5)c(Cl)c4)c3s2)C1 [GSK182497A] | 1.183
Cc1ccc(-c2nc(Nc3ccncc3)c3ccccc3n2)s1 [GSK189015A] | 0.1154
CCNC(=O)O[C@H]1CN[C@H](C#Cc2cc3ncnc(Nc4ccc(OCc5cccc(F)c5)c(Cl)c4)c3s2)C1 [GSK192082A] | 1.213
O=C(Nc1cccc(-c2nn3ncccc3c2-c2ccnc(Nc3ccccc3)n2)c1)c1c(F)cccc1F [GSK198271A] | 1.278
O=C(O[C@H]1CN[C@H](C#Cc2cc3ncnc(Nc4ccc5c(cnn5Cc5ccccc5)c4)c3s2)C1)N1CCOCC1 [GSK200398A] | 1.169
COc1cc2ncn(-c3cc(OCC4CCCCC4)c(C(N)=O)s3)c2cc1OC [GSK204559A] | 1.336
COc1cc2ncn(-c3cc(OCCc4ccccc4)c(C(N)=O)s3)c2cc1OC [GSK204925A] | 0.9795
COc1cc2c(Nc3cccc(NC(=O)c4ccccc4)c3)ncnc2cc1OCCCN1CCOCC1 [GSK223810A] | 1.471
COc1cc2ncn(-c3cc(O[C@@H](C)c4ccccc4Cl)c(C(N)=O)s3)c2cc1OC [GSK237700A] | 1.147
COc1cc2ncn(-c3cc(O[C@H](C)c4ccccc4Cl)c(C(N)=O)s3)c2cc1OC [GSK237701A] | 0.7907
CN(C)C(=O)O[C@@H]1CN[C@@H](C#Cc2cc3ncnc(Nc4ccc(OCc5cccc(F)c5)c(Cl)c4)c3s2)C1 [GSK238063A] | 1.133
O=C(O[C@H]1CN[C@H](C#Cc2cc3ncnc(Nc4ccc(Cc5ccccc5)cc4)c3s2)C1)N1CCOCC1 [GSK238583A] | 1.249
Cc1cccc(-c2nc(C)cc(Nc3ccncc3)n2)n1 [GSK257997A] | 0.832
CCn1c(-c2nonc2N)nc2cnc(Oc3cccc(NC(=O)c4ccc(OCCN5CCOCC5)cc4)c3)cc21 [GSK269962B] | 1.303
CC1=C(C(=O)Nc2ccc3[nH]ncc3c2)C(c2ccc3ccccc3c2)CC(=O)N1 (stereo not shown) [GSK270822A] | 1.167
O=C(Nc1cccc(-c2nn3ccccc3c2-c2ccnc(Nc3cccc(C(F)(F)F)c3)n2)c1)c1c(F)cccc1F [GSK292658A] | 1.154
